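Cultured in 96-well plates, cells were exposed to test compound for 48 hours across five concentrations. The concentration for 50% growth inhibition is given as GI50.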 Calls of active or inactive are those of the source. No stated cut-off is given here; in the data, active = GI50 up to about 1.1 µM and inactive = higher. Starred links: 1 amine or outer side, 2 acyl side, 3 side chain; linkers in the order of their positions; H or OH if unused. Positions of bridges follow the written chain, without caps; N, C: chain ends. Non-standard residues stand in square brackets, D forms with d. Residues, ends and D or L forms follow the SMILES beside them. ξ: configuration not given here. X37 = CC[C@H](C)[C@@H](N[*:1])[C@@H](O)CC(=O)O[C@H](C(=O)[C@H](C)C(=O)[*:2])C(C)C; NMeY = CN[C@@H](Cc1ccc(O)cc1)C(=O)O; dNMeL = CN[C@H](CC(C)C)C(=O)O; ξΔPro = O=C(O)C1C=CCN1 Some results are limits rather than exact numbers.

Test systems include HCT-116; SNB-75; SK-OV-3; HT-29; NCI-H226; HOP-62; HOP-92; HL-60; SR; K562; CCRF-CEM; RPMI-8226; COLO 205; Malme-3M; MCF7; U-251; SK-MEL-28; UO-31; SK-MEL-5; LXFL 529.
Holding throughout (experiment): DTP human tumour cell line panel, 48 h

`COc1ccc(C2c3cc4c(cc3OC(NNC(N)=O)C2C)OCO4)cc1` (stereo unspecified): the GI50 – broadly, the concentration giving 50% growth inhibition – in the assay on HCT-116 is 4.7 µM (inactive); in the assay on SNB-75 it was 6.22 µM (inactive); in the assay on SK-OV-3, 5.26 µM (inactive); in the assay on HT-29, 3.3 µM (inactive); in the assay with NCI-H226, 14.9 µM (inactive); in the assay on HOP-62, 6.28 µM (inactive). The GI50 in the assay on HOP-92 was 16.5 µM (inactive); in the assay with HL-60, 2.2 µM (inactive); in the assay with SR it was 1.9 µM (inactive); with K562 it was 2.86 µM (inactive); with CCRF-CEM, 2.95 µM (inactive); in the assay on RPMI-8226, 3.3 µM (inactive). For the same compound, the GI50 was 3.95 µM (inactive) in the assay on COLO 205; 6.67 µM (inactive) with Malme-3M; 4.21 µM (inactive) with MCF7; 4.95 µM (inactive) in the assay with U-251; 7.23 µM (inactive) in the assay with SK-MEL-28; 10.6 µM (inactive) in the assay with UO-31. Also, in the assay with SK-MEL-5, the GI50 is 6.85 µM (inactive).
Regarding `CCOC(=O)C1(Cc2ccccc2)C=CN(C(=O)c2ccccc2)C=C1`, the GI50 with HCT-116 is 29.8 µM (inactive); in the assay on SNB-75, 17.8 µM (inactive); in the assay with SK-OV-3, > 100 µM (inactive); in the assay with HT-29, 34.2 µM (inactive); with NCI-H226 it was > 100 µM (inactive); in the assay with HOP-62, 45.9 µM (inactive). Further, the GI50 in the assay on HOP-92 was 23.4 µM (inactive); in the assay on HL-60, 16.6 µM (inactive); with SR, 22.4 µM (inactive); in the assay on K562, 27 µM (inactive); in the assay with CCRF-CEM it was 20.9 µM (inactive); in the assay on RPMI-8226, 18 µM (inactive). For the same compound, the GI50 was 17.8 µM (inactive) in the assay with COLO 205; 26.6 µM (inactive) with Malme-3M; 30.4 µM (inactive) in the assay on MCF7; 29.2 µM (inactive) in the assay on U-251; 30.8 µM (inactive) with SK-MEL-28; 45.8 µM (inactive) with UO-31. Moreover, in the assay with SK-MEL-5, the GI50 is 15.1 µM (inactive).
Consider `NC(CSCc1ccccc1)C(=O)O` (stereo unspecified), for which the GI50 with HCT-116, in the assay with SNB-75, with SK-OV-3, in the assay with HT-29, with NCI-H226 and with HOP-62 was > 100 µM (inactive) throughout. Also, the GI50 in the assay on HOP-92, with HL-60, in the assay with SR, with K562, in the assay on CCRF-CEM and in the assay with RPMI-8226 was > 100 µM (inactive) in each case. The GI50 in the assay on COLO 205, with Malme-3M, with MCF7, with U-251, in the assay with SK-MEL-28 and with UO-31 was > 100 µM (inactive) in each case. The GI50 with SK-MEL-5 is > 100 µM (inactive).
Regarding `O=S(=O)(CCCCl)SCCCCl`, the GI50 in the assay on HCT-116 was 20.9 µM (inactive); in the assay with SNB-75, 33 µM (inactive); in the assay with SK-OV-3, > 83 µM (inactive); in the assay on HT-29, 25.9 µM (inactive); in the assay with NCI-H226, > 65.5 µM (inactive); in the assay on HOP-62, > 87.5 µM (inactive). The GI50 in the assay with HOP-92 is 25 µM (inactive); in the assay on HL-60 it was 9.91 µM (inactive); in the assay on SR, 10.4 µM (inactive); in the assay with K562, 7.5 µM (inactive); with CCRF-CEM, 9.1 µM (inactive); in the assay with RPMI-8226, 21.9 µM (inactive). The GI50 in the assay on COLO 205 was 29 µM (inactive); with Malme-3M, 33.6 µM (inactive); in the assay on MCF7, 19.6 µM (inactive); in the assay with U-251 it was 45.9 µM (inactive); in the assay with SK-MEL-28, 39.3 µM (inactive); with UO-31 it was 65.5 µM (inactive). Besides, the GI50 with SK-MEL-5 is 30.7 µM (inactive).
For `COc1ccc(/C=C/c2onc3c(=O)n(C)nc(-c4ccccc4)c23)cc1`, the GI50 is > 100 µM (inactive) with HCT-116; > 100 µM (inactive) with SK-OV-3; 45 µM (inactive) in the assay with HT-29; 89.3 µM (inactive) in the assay on HOP-62; 7.26 µM (inactive) with HOP-92; > 100 µM (inactive) in the assay on HL-60. Besides, the GI50 in the assay with K562, with CCRF-CEM, with RPMI-8226, in the assay on COLO 205, in the assay on U-251 and with SK-MEL-28 was > 100 µM (inactive) throughout. Further, the GI50 in the assay with UO-31, with SK-MEL-5 and in the assay with LXFL 529 was > 100 µM (inactive) throughout.
`O=C1c2ccccc2C2(O)Nc3cc(O)ccc3C12O` (stereo unspecified): the GI50 in the assay with HCT-116, with SNB-75, in the assay with SK-OV-3, in the assay with HT-29, in the assay on NCI-H226 and in the assay on HOP-62 was > 100 µM (inactive) in each case. In addition, the GI50 with HOP-92, in the assay on HL-60, in the assay with K562, in the assay on CCRF-CEM, in the assay with RPMI-8226 and in the assay on COLO 205 was > 100 µM (inactive) throughout. Also, the GI50 in the assay on Malme-3M, with U-251, in the assay with SK-MEL-28, with SK-MEL-5 and in the assay on LXFL 529 was > 100 µM (inactive) in each case.
Turning to `COc1ccc(N2C(=O)CC(=O)N(C(=O)CCCCCCCCC(=O)N3C(=O)CC(=O)N(c4ccc(OC)cc4)C3=S)C2=S)cc1`, the GI50 with HCT-116, in the assay with SNB-75, in the assay with SK-OV-3, in the assay on HT-29, in the assay on NCI-H226 and in the assay with HOP-62 was > 100 µM (inactive) in each case. The GI50 with HOP-92 is > 100 µM (inactive); in the assay with HL-60, 95.9 µM (inactive); in the assay on SR it was 39.4 µM (inactive); with K562, 44.3 µM (inactive); in the assay with CCRF-CEM, 31.6 µM (inactive); in the assay with RPMI-8226, 44 µM (inactive). Also, the GI50 with COLO 205 was > 100 µM (inactive); in the assay with Malme-3M, > 100 µM (inactive); in the assay with MCF7, > 100 µM (inactive); in the assay on U-251, > 100 µM (inactive); in the assay with SK-MEL-28 it was > 100 µM (inactive); with UO-31, 79.6 µM (inactive). Also, the GI50 in the assay on SK-MEL-5 is 57.9 µM (inactive).
Regarding `CCCCN(CCCC)CCCCNc1c(C)cnc2cc(Cl)ccc12`, the GI50 in the assay on HCT-116 is 11.1 µM (inactive); in the assay with HT-29, 14.9 µM (inactive); in the assay on NCI-H226, 16.4 µM (inactive); in the assay with HOP-62, 21.3 µM (inactive); with HOP-92, 13.5 µM (inactive); in the assay on K562 it was 10.3 µM (inactive). Also, the GI50 with CCRF-CEM was 49.1 µM (inactive); in the assay on COLO 205, 23.3 µM (inactive); in the assay on Malme-3M, 21 µM (inactive); in the assay on U-251 it was 28.6 µM (inactive); with SK-MEL-28 it was 17.2 µM (inactive); with UO-31, 9.35 µM (inactive). Besides, in the assay on LXFL 529, the GI50 was 31 µM (inactive).
`COC1=CC(=O)C2C(C1=O)C(c1ccc(OC)c(OC)c1)[C@H]2C` (stereo partly specified): the GI50 in the assay on HCT-116 is 18 µM (inactive); in the assay with SNB-75 it was > 100 µM (inactive); in the assay on SK-OV-3 it was > 100 µM (inactive); in the assay with HT-29 it was 31.8 µM (inactive); in the assay with NCI-H226, > 100 µM (inactive); with HOP-62, > 100 µM (inactive). The GI50 was 20 µM (inactive) in the assay with HOP-92; 20.5 µM (inactive) in the assay on HL-60; 23.4 µM (inactive) in the assay with K562; 22.6 µM (inactive) with CCRF-CEM; 14.6 µM (inactive) in the assay on RPMI-8226; 19.1 µM (inactive) in the assay on COLO 205. Moreover, the GI50 was 19.6 µM (inactive) in the assay with Malme-3M; > 100 µM (inactive) with U-251; 20.3 µM (inactive) with SK-MEL-28; > 100 µM (inactive) with UO-31; 22.4 µM (inactive) with SK-MEL-5; 17.3 µM (inactive) in the assay on LXFL 529.
As for `CC[C@H](C)[C@H]1NC(=O)[C@@H](NC(=O)[C@@H](CC(C)C)N(C)C(=O)C2C=CCN2)[C@@H](C)OC(=O)[C@H](Cc2ccc(OC)cc2)N(C)C(=O)[C@@H]2CCCN2C(=O)[C@H](CC(C)C)NC(=O)[C@@H](C)C(=O)[C@H](C(C)C)OC(=O)C[C@@H]1O` (stereo partly specified) (H-[ξΔPro][dNMeL]T[X37]LP[NMeY](Me); ester 3-C), the GI50 in the assay with HCT-116, with SNB-75, with SK-OV-3, in the assay with HT-29, with NCI-H226 and in the assay on HOP-62 was < 0.005 µM (active) throughout. For the same compound, the GI50 was < 0.005 µM (active) with HOP-92; 0.00703 µM (active) in the assay on HL-60; < 0.005 µM (active) with SR; < 0.005 µM (active) in the assay on K562; < 0.005 µM (active) in the assay on CCRF-CEM; < 0.005 µM (active) in the assay on RPMI-8226. For the same compound, the GI50 is < 0.005 µM (active) in the assay with COLO 205; < 0.005 µM (active) in the assay with Malme-3M; < 0.005 µM (active) with MCF7; < 0.005 µM (active) in the assay with U-251; < 0.005 µM (active) with SK-MEL-28; 0.0204 µM (active) in the assay on UO-31. The GI50 in the assay with SK-MEL-5 was < 0.005 µM (active).
Consider `CC(C)[C@](O)(C(=O)OCC1=CC[N+]2([O-])CC[C@@H](O)[C@@H]12)[C@H](C)O` (stereo partly specified) [INDICINE N-OXIDE], for which the GI50 is > 10000 µM (inactive) with HCT-116; > 9750 µM (inactive) in the assay with SNB-75; > 10000 µM (inactive) in the assay on SK-OV-3; > 10000 µM (inactive) in the assay on HT-29; > 10000 µM (inactive) with NCI-H226; 3590 µM (inactive) in the assay with HOP-62. The GI50 in the assay with HOP-92 was > 9730 µM (inactive); in the assay on HL-60, 3230 µM (inactive); in the assay on SR, 4630 µM (inactive); in the assay on K562 it was > 10000 µM (inactive); with CCRF-CEM, > 9160 µM (inactive); with RPMI-8226, > 10000 µM (inactive). Also, the GI50 in the assay on COLO 205 is > 5940 µM (inactive); with Malme-3M it was > 9420 µM (inactive); in the assay on MCF7, > 10000 µM (inactive); with U-251, > 8570 µM (inactive); with SK-MEL-28, > 10000 µM (inactive); in the assay on UO-31, > 10000 µM (inactive). Also, the GI50 with SK-MEL-5 is > 7000 µM (inactive).

Source of the values: ChEMBL document CHEMBL1201862, “PubChem BioAssay data set” (2004).
